# In a melting point compilation (Tetko et al.; mined from patent text by program, amines drawn as free bases though some values may be those of a salt):
row,melting point,Structure (SMILES)
1,163 to 167 °C,CC(=O)Oc1ccc([N+](=O)[O-])cc1C1(OC(C)=O)C(=O)c2ccccc2C1=O
2,58 to 62 °C,COC(=O)N1CCC[C@@H](OC)[C@@H]1CC(=O)Cn1cnc2c(Cl)c(Cl)sc2c1=O (relative stereo)
3,180 to 182 °C,Cc1cc(F)cc(-c2ccc3c(c2)C2(CCCCC2)C(=O)N3)c1
4,169 to 170 °C,O=C(N[C@H]1CCN(C(=O)c2cc(C(F)(F)F)cc(C(F)(F)F)c2)[C@H](Cc2ccc(Cl)cc2)C1)c1cc(=O)c2ccccc2o1
5,60 to 61 °C,CCCCCCCCCCOc1ccc([N+](=O)[O-])cc1OCCCCCCCCCC
6,114 to 116 °C,CN1CC(CCCl)Oc2cc3ccccc3nc2C1=S (configuration not stated)
7,134 to 135 °C,CCC(C)c1nn(-c2ccc(C(F)(F)F)cn2)cc1CCCOc1c(C)cccc1CC(=O)O (configuration not stated)
8,139 to 140 °C,Cc1cc(Cl)nc2ccc(Br)cc12
9,63 to 65 °C,CC(=NO)c1cccc(C(F)(F)F)c1
10,100 to 101 °C,COc1ccc(C[C@H](NC(=O)[C@H](CC(C)C)NC(=O)OCc2ccccc2)C(=O)CSC)cc1
11,159 to 161 °C,CC(=O)c1cnccc1-c1c(-c2ccccc2)nn2ccccc12
12,214 to 215 °C,ON=C1CCC(c2ccccc2)CC1c1ccccc1 (configuration not stated)
13,97 to 98 °C,CCc1ncnc(NC2CCC3(CC2)OCC(CO)O3)c1Cl (configuration not stated)
14,84 to 86 °C,CCCCCCCCCc1ccc(C(=O)[C@@H]2CCCC[C@H]2C(=O)O)cc1 (relative stereo)
15,68 to 69 °C,Cc1nc(-c2ccc(OC(F)(F)F)cc2)ccc1CO
16,33 to 60 °C,Nc1c(OCCNCc2ccccc2)cccc1[N+](=O)[O-]
17,165 °C,Nc1ccc2ccc(Oc3cccc(F)c3)nc2n1
18,125 to 128 °C,CC(c1ccc(Cl)cc1)N(O)C(N)=O (configuration not stated)
19,258 to 260 °C,CC(=O)c1cccc(-c2cc3c4cc(C)ccc4[nH]c3n(C)c2=O)c1
20,159 to 161 °C,Nc1ncc(Oc2ccc(Cl)cc2)c(N2CCN(C=O)CC2)n1
21,74 to 75 °C,CCOC(=O)COc1cccc2c1CCc1sc(O)nc1-2
22,245 to 246 °C,O=C1NCc2c(O)nc3ccccc3c21
23,138 to 140 °C,COC(=O)C(CSSc1ccccc1C(=O)Nc1ccc(S(N)(=O)=O)cc1)NC(C)=O (configuration not stated)
24,116 to 118 °C,COCC(C)c1ccc(N2Cc3ccc(OC)cc3C2=O)cc1 (configuration not stated)
25,97.5 to 100 °C,N#CN(Cc1ccccc1)C(=O)CCCC(=O)N(C#N)Cc1ccccc1

row,melting point,Structure (SMILES)
1,155 to 157 °C,COc1nc(NC(=O)NS(=O)(=O)c2ccccc2OC(F)F)nc(OCC(F)(F)F)n1
2,195 to 197 °C,O=C(O)C1SCSCC12OCCO2 (configuration not stated)
3,168 °C,Nc1ncc(-c2ccc(C(F)(F)F)cc2)cc1C(F)(F)F
4,118 to 122 °C,CC12CCC(OC(=O)COc3ccccc3)CC1=CCC1C2CCC2(C)C(=NO)CCC12 (configuration not stated)
5,120 to 122 °C,N#Cc1cc(Oc2ccc(Cl)cc2)ccc1[N+](=O)[O-]
6,105 °C,O=C1COCCOCC(=O)N2CCOCCOCCN1CCOCC2
7,226 °C,COc1cc(OC)c(C(=O)CCCCN2CCC3(CC2)NC(=O)NC3=O)cc1NS(=O)(=O)c1ccc(C(F)(F)F)cc1
8,213 to 217 °C,O=C(Nc1ccc(C(F)(F)F)cc1)NC1CCN(C(=O)c2cccnc2)CC1
9,162 °C,O=S(=O)(Nc1ccc(Cl)cc1I)c1ccc2ncsc2c1
10,106 to 109 °C,CCc1ccsc1C(=O)O
11,177 to 182 °C,SC1=NCCN1Cc1ccccc1
12,42 to 46 °C,COC(=O)c1nscc1S(=O)(=O)Cl
13,96 to 99 °C,CN(CSC(C)(C)C)C(=O)Nc1cccc(C(F)(F)F)c1
14,127 to 129 °C,Cc1cc(-n2nc(C(F)(F)F)cc2-c2ccc(S(C)(=O)=O)cc2)ccc1Br
15,54 °C,Nc1c(Cl)nc(C2CC2)nc1Cl
16,214 to 216 °C,COc1cc(C)c2ccc(=O)[nH]c2n1
17,130 to 131 °C,C/C(=C\c1ccc(OC(C)C)cc1Oc1ncc(C(F)(F)F)cc1Cl)C(=O)NS(=O)(=O)NCCc1cccs1
18,194 to 196 °C,COc1ccc(Sc2ccc3c(c2)CC[C@H]2NC(=O)CC[C@]32C)cc1
19,111 to 113 °C,CCCCN(CC(=O)N1c2ccccc2N(C)C(=O)c2cnc(-c3ccccc3)nc21)C(C)(C)C
20,214 to 217 °C,C=C(C(=O)c1ccc(C=CC(=O)O)cc1)c1c(F)c(F)c(F)c(F)c1F
21,138 to 142 °C,O=C(c1ccc(F)cc1)c1c(-c2ccc(OCCN3CCCC3)cc2)sc2c(O)cccc12
22,162 to 163 °C,Cc1oc(-c2ccccc2)nc1COc1ccc(COc2ccc(Br)cc2CC(=O)O)cc1
23,> 200 °C,CN(C)CCCOc1ccc(C[C@H](NC(=O)[C@@H]2CCCN2S(=O)(=O)c2cc(Cl)sc2Cl)C(=O)O)cc1
24,112 to 114 °C,CC1=CC(C)(C)Cc2c1nc(C(C)C)c(CO)c2-c1ccc(F)cc1
25,91.4 °C,CCCCc1ccc(N2CCC(CCOc3ccc(C(=O)OCC)cc3)CC2)nn1

row,melting point,Structure (SMILES)
1,80 to 82 °C,COc1c(F)c(F)c(C(=O)c2ccc(Br)cc2)c(F)c1F
2,245 to 246 °C,CC(C)c1cccc(C(C)C)c1NC(=O)CNC(c1ccccc1)c1ccc(C(=O)O)cc1 (configuration not stated)
3,167 to 168 °C,CSc1cc(C(F)(F)F)nn1-c1ccc(NC(=O)c2cccnc2F)cc1
4,86.5 to 88.5 °C,CC(C)(CBr)c1cc(Cl)nnc1Cl
5,252 to 256 °C,C[Si](C)(C)Nc1ccn([Si](C)(C)C)c(=O)n1
6,132 to 133 °C,O=C(O)Cc1noc2cc(F)ccc12
7,186 to 188 °C,O=C(NNc1ccc(NC(=S)NCc2ccccc2)cc1)c1ccc(F)cc1
8,85 to 87 °C,CS(=O)(=O)Nc1cc2c(cc1Oc1ccc(F)cc1F)CCC2
9,207 to 208 °C,CNC(=S)NS(=O)(=O)c1cc2c(cc1C)OCC(NC(=O)c1cc(Cl)ccc1OC)C2 (configuration not stated)
10,265 to 267 °C,c1ccc(-c2csc(Nc3cc4ccccc4cn3)n2)cc1
11,159 °C,Cc1cc(-c2noc(C)c2-c2ccc(S(N)(=O)=O)c(F)c2)ccc1-c1cscn1
12,134 °C,COc1ccc2ccc(NC(=O)c3ccccc3)nc2n1
13,157 to 158 °C,CCc1c(Sc2cc(C)cc(C)c2)n(C/C=C/CO)c(=O)[nH]c1=O
14,127 °C,OCC1(c2ccccc2)CCN(Cc2ccccc2)CC1
15,87 to 90.5 °C,CNC(=O)C(C)(C)n1cc(C)c(-c2ccccc2Cl)n1
16,137 to 138 °C,COc1cccc2c1CC(C(=O)O)N2S(=O)(=O)c1ccc(-c2ccc(F)cc2Cl)cc1 (configuration not stated)
17,126 to 130 °C,CC1(C)CC(=O)Nc2ccc(N)cc21
18,> 220 °C,COc1ccc(Nc2nc(-c3ccncc3)nc3ccccc23)cc1Cl
19,203 to 205 °C,O=C1CCC(N2Cc3c(OCc4ccc(OCCN5CCOCC5)cc4)cccc3C2=O)C(=O)N1 (configuration not stated)
20,142 to 143 °C,Cc1cccc(C)c1CNc1cc(C(=O)N(C)C)cc2c1nc(C)n2C
21,190 to 191 °C,Cn1c(=O)c(-c2ccccc2Cl)cc2cnc(N[C@H]3CC[C@H](N)CC3)nc21
22,95 to 98 °C,CC(=O)OCCc1cccc2c(-c3ccccc3)c([N+](=O)[O-])oc12
23,240 °C,Cc1ccc(S(=O)(=O)NC(C)(C)CO)cc1NC(=O)c1cnn2c(C(F)(F)F)cc(-c3ccc(C(F)(F)F)cc3)nc12
24,151 to 153 °C,CCCN(Cc1ccc(-c2ccccc2C2=NC(C)(C)CO2)cc1)C(c1ccccc1)(c1ccccc1)c1ccccc1
25,197 to 208 °C,CC(C)c1cc(C=C2C(=O)NC(=O)N2C)cc(C(C)C)c1O

row,melting point,Structure (SMILES)
1,37 °C,CCCCCCCCCCCC(CC(=O)O)OC(C)=O (racemic)
2,81 to 83 °C,CC(=O)Oc1cccc(C(=O)c2ccccc2)c1OC(C)=O
3,83 to 86 °C,CSCC(C)(C)NC(=O)c1ccccc1Cl
4,185 to 186 °C,O=C(CO)NCCCn1c(-c2ccc(Br)cc2)csc1=Nc1ccccc1
5,115 to 121 °C,CCCn1cc(Cc2ccc(C(=O)NS(=O)(=O)c3ccccc3C)cc2OC)c2cc(CCNC(=O)N(C)C)ccc21
6,128 °C,CSc1nnc(-c2ccco2)s1
7,176 to 178 °C,O=C(O)c1ccccc1NCCCN1c2ccccc2CCc2ccc(Cl)cc21
8,194 to 197 °C,Cc1c(C(=O)NCc2ccc3c(Br)c(OCC#N)ccc3c2)oc2ccccc12
9,122 to 123 °C,COc1ccc(C(=O)N2c3ccccc3SC2C#N)cc1 (configuration not stated)
10,124 to 126 °C,O=[N+]([O-])c1ccc(OCc2ccc(F)cc2)cc1
11,252 to 255 °C,CCCc1nc2c(N)nc3cc(-c4ccc(NC(C)=O)cc4)ccc3c2s1
12,154 to 156 °C,CCOC(=O)C(=CNC1CCCCC1)C(=O)c1ccc(I)cc1Cl
13,137 to 138 °C,CCOC(=O)c1c(N2CCN(c3ccccc3)CC2)n[nH]c1C
14,140 to 145 °C,CCOc1cc2ncc(C#N)c(C)c2cc1OCC
15,128 °C,CC#CCOc1ccc(SC(C(=O)NO)C(C)C)cc1 (configuration not stated)
16,250 °C,CC(=O)NCCNc1nc(-c2ccccc2)nc2[nH]c(C(=O)N3CCOCC3)cc12
17,103 to 104 °C,COc1ccc(NN=C(Sc2ccc(CF)cc2)C(C)=O)cc1
18,46 to 49 °C,CC(C)(C)c1ccc(CC(=O)CCCl)cc1
19,230 °C,Cc1c(C(=O)Nc2ccc(N3CCN(C4CCOCC4)CC3)c(C#N)c2)cnn1-c1cccc(Cl)c1
20,98 to 100 °C,CSc1cnnc(Cl)c1
21,208 to 210 °C,N#Cc1cnn(-c2c(Cl)cc(Cl)cc2Cl)c1N
22,188 to 189 °C,Cc1c2c(cc3c(-c4ccccc4F)noc13)CC(C(=O)O)O2 (configuration not stated)

row,Structure (SMILES),melting point
1,OC1Cc2c(I)cccc2CC1N1CCC(c2ccccc2)CC1 (configuration not stated),194 °C
2,CCCCC1(N2CCCC2)CCC(c2[nH]c3ccccc3c2CCc2ccncc2)CC1 (configuration not stated),165 to 175 °C
3,COc1ccc2c(c1)CCC(CN1CCC3(CC1)C(=O)NCN3c1ccccc1)C2=O (configuration not stated),177 to 179 °C
4,CCNC(=O)c1ccc(N2CCNCC2)cc1,131 to 134 °C
5,CNc1c(SC(F)(F)F)c(C#N)nn1-c1c(Cl)cc(C(F)(F)F)cc1Cl,208 to 210 °C
